# Experiments:
# A549 = experiment: CCK-8 cytotoxicity assay, A549; format: cell-based; details: Homo sapiens, A549, 72 h
# Method: (§1) Cell viability was evaluated using the Cell Counting Kit‐8 (Beyotime, Shanghai, China) assay. Cells were seeded in 96‐well plates at a density of 2×10^3 cells to allow for attachment. After treatment with ZQJ29 (0.001, 0.01, 0.1, 10, and 25 µM) for 24, 48, and 72 h, 10 µL of CCK‐8 solution was added to each well and incubated for 1 h. The optical density values were then measured at 450 nm using a multifunctional enzyme‐linked immunosorbent assay reader (Tecan, Spark, Switzerland).
# MCF = experiment: CCK-8 cytotoxicity assay, MCF; format: cell-based; details: 72 h
# Method: as §1
# LX2 = experiment: CCK-8 cytotoxicity assay, LX2 (normal cell line); format: cell-based; details: Homo sapiens, LX-2, 72 h
# Method: as §1
# [1] = Toxicity in tumor-bearing mice (body weight, ALT/AST, H&E); format: in vivo, BALB/c nude mice
# Method: Five‐week‐old male BALB/c nude mice were purchased from Shanghai Jihui Laboratory Animal Breeding Co., Ltd. (Shanghai, China). After a one‐week acclimatization period, PANC‐1 cells were subcutaneously injected at a dose of 5 × 10^6 cells per mouse. Four weeks post‐injection, once tumor volumes reached 50–100 mm^3, the tumor‐bearing animals were randomly divided into four groups, each consisting of six animals. ZQJ29 was prepared in a 0.5% CMC‐Na solution, while OXA was dissolved in saline. The control group was treated with oral gavage of 0.5% CMC‐Na, while the positive control group was administered intraperitoneal injections of OXA at a dosage of 3 mg kg^−1 every three days. The test groups were treated with oral gavage of ZQJ29 at dosages of 25 and 50 mg kg day^−1. Mouse weights were monitored every other day. Tumor measurements were taken every other day using calipers, and the tumor volume was calculated using the following formula: ½ × length × width^2. Drug administered continued for three weeks. After blood collection at the end of the administration, the mice were humanely euthanized, and their vital organs were promptly harvested, preserved, and embedded in paraffin for H&E staining.
# Following the experiments, organs from mice, including hearts, livers, spleens, lungs, and kidneys were swiftly collected and fixed in 4% paraformaldehyde overnight. The tissues were then embedded in paraffin. Afterward, 4‐µm‐thick sections were produced and stained using H&E. Images of these sections were captured with a Leica DM4000b microscope (Germany).
# Blood samples were collected and placed in a biochemical incubator for 30 min, followed by centrifugation at 6000 rpm for 10 min. The supernatant was used to measure the following indicators: ALT and AST (both from Jiancheng, Nanjing, China).
# PANC-1 and KP4 cells = experiment: Mitochondrial membrane potential assay (JC-1); format: cell-based; details: 24 h
# Method: Mitochondrial membrane potential assay kits with JC‐1 (Beyotime, Shanghai, China) were used to measure the alteration of mitochondrial membrane potential (ΔΨm). After being treated with different concentrations of ZQJ29 (0, 1, 2.5, and 5 µM) for 24 h, cells were treated with the positive control reagent CCCP (10 µM) for 30 min at 37 °C. The cells were rinsed once with PBS, and the JC‐1 staining working solution was added for 30 min at 37 °C in the dark. Afterward, the cells were washed twice with 1 × JC‐1 staining buffer. Fluorescent images of the JC‐1‐stained cells were captured with a fluorescence microscope Cytation5 (BioTek, America).
# PARP1 = PARP1 expression (western blot, immunofluorescence); format: cell-based
# Method: (§2) For western blotting analysis, ZQJ29‐treated cells were lysed with RIPA Lysis Buffer (Yeasen, Shanghai, China) containing protease and phosphatase inhibitors (Yeasen, Shanghai, China) on ice. The cell lysates were quantified using the BCA Protein Assay Kit (Beyotime, Shanghai, China). Samples were subjected to SDS‐PAGE and transferred to PVDF membranes (Beyotime, Shanghai, China). The membranes were blocked with 5% nonfat milk in TBST (Buffered Saline with 0.1% Tween 20) for 1 h, followed by overnight incubation at 4 °C with primary antibodies. After washing the membranes three times with TBST, they were incubated with the appropriate secondary antibodies for 2 h at room temperature. Following another three times with TBST, the bands on the membranes were detected using the ECL‐Plus Western Blotting Detection System (Yeasen, Shanghai, China).
# PARP1 expression in the cell nucleus was detected using immunofluorescence. The cells were seeded in a 12‐well plate and treated with ZQJ29 (0, 1, 2.5, and 5 µM) after complete adhesion. After a specific duration of treatment, fixation, blocking, and antibody incubation were performed, and images were captured using a Cytation 5‐cell imaging microplate detection system.
# [2] = system: PARP1, TP53, SLC7A11, and GPX4; experiment: Western blot of PARP1, TP53, SLC7A11 and GPX4 in cells; format: cell-based; details: PANC-1 and KP4 cell lines, dose-dependent
# Method: as §2
smiles,measurement,setting,value
CC1CCC2C(C)C(OCCN(C#N)CCOC3OC4OC5(C)CCC6C(C)CCC(C3C)C46OO5)OC3OC4(C)CCC1C32OO4 (centres unmarked) [ZQJ29],IC50,A549,> 10 µM
same,IC50,MCF,0.759 ± 0.311 µM
same,IC50,LX2,> 10 µM
same,post-experiment levels of ALT and AST,"[1]; ZQJ29 50 mg/kg, OXA 3 mg/kg i.p.",no significant alterations
same,major organ damage (H&E staining),"[1]; hearts, livers, spleens, lungs, kidneys",no significant major organ damage
same,body weight during the whole treatment period,"[1]; tumor-bearing nude mice, three weeks",remained stable
same,"mitochondrial membrane potential (MMP), JC-1",PANC-1 and KP4 cells,decrease in MMP
same,nucleoplasmic PARP1 levels (immunofluorescence),"PARP1; PANC-1 and KP4 cells, 0, 1, 2.5, 5 µM, 24 h",remarkably reduced
same,PARP1 expression (western blot),"PARP1; PANC-1 and KP4 cells, time- and concentration-dependent",significantly reduced
same,"expression of PARP1, SLC7A11 and GPX4",[2],downregulated
same,expression of TP53,[2],upregulated

# Reference: paper PMC12362764, “Novel Cyano‐Artemisinin Dimer ZQJ29 Targets PARP1 to Induce Ferroptosis in Pancreatic Cancer Treatment” (Advanced Science, 2025)
